Measured values reported in patent US8372890B2, “Functional food containing sodium tricaffeoylaldarate” (Zenyaku Kogyo Kabushikikaisha, priority 2006, dated 2013).

Columns and labels:
[1] = tested on: Lipid Peroxidation (brain homogenate auto-oxidation); experiment: Brain homogenate auto-oxidation test (lipid peroxide production inhibition, thiobarbituric acid method); format: biochemical; settings: for IC50: value in parentheses, read-out: Inhibitory Activities on Lipid Peroxidation IC50
Source text: [formula] Moreover, f: Purity of reference standard (%)/100 6) Brain Homogenate Auto-oxidation Test
Determined via a thiobarbituric acid method that was based on the method of Ohkawa, et al. (Reference Document 2)

[2] = 1,1-Diphenyl-2-picrylhydrazyl (DPPH) radical scavenging test; settings: for EC50: value in parentheses, read-out: DPPH Radical Scavenging Activities EC50
Source text: 7) 1,1-Diphenyl-2-picrylhydrazyl (DPPH) Radical Scavenging Test
Determined based on the method of Blois, et al. (Reference Document 3)

[3] = molecular target: sucrase (Homo sapiens, UniProt P14410); experiment: Glycosidase inhibitory activity test, sucrase; format: biochemical
Source text: (§1) 8) Glycosidase Inhibitory Activity Test
(§2) Determined via a method whereby α-amylase, maltase, and sucrase inhibitory activities were all disclosed in the abovementioned report (Non-Patent Document 1).

[4] = molecular target: α-amylase; experiment: Glycosidase inhibitory activity test, amylase; format: biochemical
Source text: as §1, §2

[5] = molecular target: maltase; experiment: Glycosidase inhibitory activity test, maltase; format: biochemical
Source text: as §1, §2

[6] = tested on: blood glucose level after maltose-loading; experiment: Hyperglycemic inhibitory action after maltose-loading in rat; format: in vivo, SD (IGS) rat; settings: for ΔAUC of blood glucose / ΔCmax of blood glucose: maltose 1 g/kg gavage
Source text: • 1) Test Substance: With regard to TCAA, Yacon hot water extract was passed through an HP-20 column chromatograph, then eluted with water, and finally eluted with 50% methanol to obtain a polyphenol fraction. This fraction was separated by being passed through a Sephadex LH-20, and eluted with 40% methanol/water, so that the total amount of TCAA contained therein was recovered during confirmation of TCAA with HPLC. Then, the rough TCAA fraction was passed through a HW-40 column chromatograph, separated with 40% methanol/water during confirmation of TCAA with HPLC in a similar manner, and components other than TCAA were removed. […] Moreover, the maltose employed was purchased from Wako Pure Chemical Industries, Ltd. • 2) Animals: One group of five SD (IGS) 7 week old male rats was employed. 2. Experimental Method • 1) Configuration of the Treatment Group • (1) Control Group (Maltose Only) • (2) Maltose+TCAA (600 mg/kg×2) • (3) Maltose+TCAA (300 mg/kg×2) • (4) Maltose+TCAA (150 mg/kg×2) • 2) Preparation of Test Substance
Maltose was weighed to an amount of 1.5 g, dissolved in 15 ml of distilled water, and administered by gavage at a dosage of 1 g/10 ml/kg. Then TCAA was administered in two doses, a first dosage in which it was administered in a maltose solution, and then a second dosage in which it was dissolved in distilled water, with both dosages being at ratios of 150 mg/10 ml, 300 mg/10 ml, and 600 mg/10 ml, respectively, and administration thereof by gavage at a dosage of 10 ml/kg.
After blood samples were collected from rats that fasted for 17 hours prior to administration of the test substance (0 time), the test substance was administered. Fifteen minutes later the second dosage was administered, with blood samples being taken soon thereafter (specifically, 15 minutes later), 30 minutes thereafter, 45 minutes thereafter, 60 minutes thereafter, 90 minutes thereafter, and 120 minutes thereafter, respectively, and then blood glucose levels being measured with a Glucocard (Aventis Pharma, Limited).
When measuring blood glucose levels at the times that each of the samples were collected, the change in blood glucose (A) was calculated by subtracting the blood glucose level prior to the administration (0 time) from the blood glucose levels after the administration of the test substance, and determining the maximum serum concentration (ΔCMAX) and area under the blood glucose curve (ΔAUC).
The blood glucose values obtained by the present experiment were averaged, the standard error of the mean was calculated, and a two-group comparison was made with the control group. The statistical test method was via the Bartlett method, with the variance of the measured values being statistically verified within a 95% confidence limit, and the Student's t-test only being conducted in cases of equal variance, to determine that p<0.05 was a statistically significant change.

[7] = comparative molar concentrations
[8] = TCAA 150 mg/kg × 2, mean ± SE, n = 5
[9] = TCAA 300 mg/kg × 2, mean ± SE, n = 5

sucrase, sequence (P14410 whole entry, species assumed): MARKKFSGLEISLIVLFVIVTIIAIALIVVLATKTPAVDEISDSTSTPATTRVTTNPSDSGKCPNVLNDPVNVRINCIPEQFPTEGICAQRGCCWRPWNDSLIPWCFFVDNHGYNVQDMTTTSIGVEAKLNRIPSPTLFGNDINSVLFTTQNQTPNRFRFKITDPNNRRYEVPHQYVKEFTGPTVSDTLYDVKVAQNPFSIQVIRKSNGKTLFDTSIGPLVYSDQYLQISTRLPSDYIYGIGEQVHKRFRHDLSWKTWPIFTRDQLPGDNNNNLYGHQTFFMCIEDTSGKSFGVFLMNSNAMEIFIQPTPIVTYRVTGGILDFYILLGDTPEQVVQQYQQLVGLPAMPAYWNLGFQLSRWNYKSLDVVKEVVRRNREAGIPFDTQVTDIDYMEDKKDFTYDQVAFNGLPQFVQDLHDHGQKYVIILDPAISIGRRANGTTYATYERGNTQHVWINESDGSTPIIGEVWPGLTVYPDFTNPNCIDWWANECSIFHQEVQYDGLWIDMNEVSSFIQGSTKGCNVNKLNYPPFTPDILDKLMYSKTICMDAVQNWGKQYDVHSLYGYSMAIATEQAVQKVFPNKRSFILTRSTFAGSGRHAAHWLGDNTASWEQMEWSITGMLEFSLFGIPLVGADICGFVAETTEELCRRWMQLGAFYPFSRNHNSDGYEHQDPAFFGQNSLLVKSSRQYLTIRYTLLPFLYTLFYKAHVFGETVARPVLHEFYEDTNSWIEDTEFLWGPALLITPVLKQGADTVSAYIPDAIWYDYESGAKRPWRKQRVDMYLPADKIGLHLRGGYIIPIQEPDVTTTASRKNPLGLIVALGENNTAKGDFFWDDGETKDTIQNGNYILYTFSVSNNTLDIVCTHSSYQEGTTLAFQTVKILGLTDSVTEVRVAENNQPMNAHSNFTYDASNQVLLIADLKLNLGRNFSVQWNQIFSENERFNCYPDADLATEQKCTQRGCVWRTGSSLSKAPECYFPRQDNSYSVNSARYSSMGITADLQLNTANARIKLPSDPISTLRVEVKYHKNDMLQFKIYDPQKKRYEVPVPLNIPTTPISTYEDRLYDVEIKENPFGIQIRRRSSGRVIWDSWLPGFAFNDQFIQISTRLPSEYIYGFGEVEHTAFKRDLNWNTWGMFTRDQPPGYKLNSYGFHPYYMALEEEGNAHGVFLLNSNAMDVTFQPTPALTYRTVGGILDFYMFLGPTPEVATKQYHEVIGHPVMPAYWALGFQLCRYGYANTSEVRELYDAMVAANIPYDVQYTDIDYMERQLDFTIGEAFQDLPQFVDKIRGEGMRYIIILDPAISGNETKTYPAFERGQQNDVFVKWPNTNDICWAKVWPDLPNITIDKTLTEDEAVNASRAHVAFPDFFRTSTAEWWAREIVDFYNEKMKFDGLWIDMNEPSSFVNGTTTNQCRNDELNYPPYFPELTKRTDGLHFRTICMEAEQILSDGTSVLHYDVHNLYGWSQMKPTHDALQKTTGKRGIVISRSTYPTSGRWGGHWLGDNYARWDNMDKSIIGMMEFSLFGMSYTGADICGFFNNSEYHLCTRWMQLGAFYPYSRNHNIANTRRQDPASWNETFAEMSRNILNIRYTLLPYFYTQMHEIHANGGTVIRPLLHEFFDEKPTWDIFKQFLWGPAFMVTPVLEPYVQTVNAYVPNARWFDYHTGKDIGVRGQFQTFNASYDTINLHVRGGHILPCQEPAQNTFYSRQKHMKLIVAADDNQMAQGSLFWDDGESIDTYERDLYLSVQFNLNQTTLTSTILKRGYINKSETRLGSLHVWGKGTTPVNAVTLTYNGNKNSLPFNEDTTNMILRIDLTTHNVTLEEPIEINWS

Compound | Inhibitory Activities on Lipid Peroxidation IC50 [1] [µg/mL] | IC50 [1] [µM] | DPPH Radical Scavenging Activities EC50 [2] [µg/mL] | EC50 [2] [µM] | other results
O=C(O)/C=C/c1ccc(O)c(O)c1 [caffeic acid] | 9.97 | 55.3 | 4.39 | 24.3 | 
O=C(/C=C/c1ccc(O)c(O)c1)O[C@@H]1C[C@](O)(C(=O)O)C[C@@H](OC(=O)/C=C/c2ccc(O)c(O)c2)[C@H]1O [3,5-DCQA] | 2.18 | 4.23 | 0.87 | 1.69 | 
(±)-catechin | 13.69 | 47.2 | 1.56 | 5.37 | 
Cc1c(C)c2c(c(C)c1O)CC[C@@](C)(CCC[C@H](C)CCC[C@H](C)CCCC(C)C)O2 [α-tocopherol] | 71.24 | 166 | 5.65 | 13.1 | 
O=c1oc2c(O)c(O)cc3c(=O)oc4c(O)c(O)cc1c4c23 [ellagic acid] | 0.56 | 1.85 | 0.51 | 1.69 | 
2,3,5-tricaffeoylaltraric acid, or 2,4,5-tricaffeoylaltraric acid [TCAA] | 0.49 | 0.7 | 0.69 | 0.99 | lipid peroxide production inhibitory activity, times greater than that of (±)-catechin [1, 7]: 68 times; lipid peroxide production inhibitory activity, times greater than that of ellagic acid [1, 7]: 2.5 times; sucrase inhibitory activity IC50 [3]: > 1000 µg/mL; amylase inhibitory activity IC50 [4]: 420 µg/mL; maltase inhibitory activity IC50 ([5]; TCAA isolated in Example 1): 49 µg/mL; maltase inhibitory activity IC50 ([5]; TCAA test substance of Example 4, purity 91%): 61 µg/mL; maltase inhibitory activity compared to an acarbose control ([5]; fraction of acarbose activity): 1/19; blood glucose 90 minute values compared to control group ([6]; 600 mg/kg TCAA group): obvious increase; increase in blood glucose via maltose-loading at 15 minutes ([6]; each TCAA dosage group (150, 300, 600 mg/kg × 2) vs control, p<0.01): significantly inhibited; ΔAUC of blood glucose [6, 8]: 5834 ± 484 mg·min/dL; ΔCmax of blood glucose [6, 8]: 86 ± 9 mg/dL; ΔAUC of blood glucose [6, 9]: 5456 ± 249 mg·min/dL; ΔCmax of blood glucose [6, 9]: 84 ± 5 mg/dL; ΔAUC of blood glucose ([6]; TCAA 600 mg/kg × 2, mean ± SE, n = 5): 5495 ± 300 mg·min/dL; ΔCmax of blood glucose ([6]; TCAA 600 mg/kg × 2, mean ± SE, n = 5, p < 0.05 vs control): 73 ± 3 mg/dL
O=C(/C=C/c1ccc(O)c(O)c1)O[C@@H]1[C@H](O)C[C@@](O)(C(=O)O)C[C@H]1OC(=O)/C=C/c1ccc(O)c(O)c1 [3,4-DCQA, 3,4-dicaffeoylquinic acid] | 1.48 | 2.87 | 0.91 | 1.76 | 
O=C(/C=C/c1ccc(O)c(O)c1)O[C@H]1[C@H](O)C[C@](O)(C(=O)O)C[C@H]1OC(=O)/C=C/c1ccc(O)c(O)c1 [4,5-DCQA] | 3.38 | 6.55 | 0.89 | 1.72 | 
O=C(/C=C/c1ccc(O)c(O)c1)O[C@@H]1C[C@](O)(C(=O)O)C[C@@H](O)[C@H]1O [chlorogenic acid] | 13.21 | 37.3 |  |  | 
